Assay results: ChEMBL document CHEMBL5370608, “Selective and Bioavailable HDAC6 2-(Difluoromethyl)-1,3,4-oxadiazole Substrate Inhibitors and Modeling of Their Bioactivation Mechanism” (J Med Chem, 2023)
pEC50, pIC50: −log10 of the molar value. Converted amounts (≈) assume the structure as drawn.

Legend:
Histone deacetylase 7 = target: T1, Histone deacetylase 7 (Homo sapiens, UniProt Q8WUI4); test: Inhibition of human recombinant HDAC7 incubated for 30 mins by fluorimetry analysis
T1 sequence (Q8WUI4 whole entry): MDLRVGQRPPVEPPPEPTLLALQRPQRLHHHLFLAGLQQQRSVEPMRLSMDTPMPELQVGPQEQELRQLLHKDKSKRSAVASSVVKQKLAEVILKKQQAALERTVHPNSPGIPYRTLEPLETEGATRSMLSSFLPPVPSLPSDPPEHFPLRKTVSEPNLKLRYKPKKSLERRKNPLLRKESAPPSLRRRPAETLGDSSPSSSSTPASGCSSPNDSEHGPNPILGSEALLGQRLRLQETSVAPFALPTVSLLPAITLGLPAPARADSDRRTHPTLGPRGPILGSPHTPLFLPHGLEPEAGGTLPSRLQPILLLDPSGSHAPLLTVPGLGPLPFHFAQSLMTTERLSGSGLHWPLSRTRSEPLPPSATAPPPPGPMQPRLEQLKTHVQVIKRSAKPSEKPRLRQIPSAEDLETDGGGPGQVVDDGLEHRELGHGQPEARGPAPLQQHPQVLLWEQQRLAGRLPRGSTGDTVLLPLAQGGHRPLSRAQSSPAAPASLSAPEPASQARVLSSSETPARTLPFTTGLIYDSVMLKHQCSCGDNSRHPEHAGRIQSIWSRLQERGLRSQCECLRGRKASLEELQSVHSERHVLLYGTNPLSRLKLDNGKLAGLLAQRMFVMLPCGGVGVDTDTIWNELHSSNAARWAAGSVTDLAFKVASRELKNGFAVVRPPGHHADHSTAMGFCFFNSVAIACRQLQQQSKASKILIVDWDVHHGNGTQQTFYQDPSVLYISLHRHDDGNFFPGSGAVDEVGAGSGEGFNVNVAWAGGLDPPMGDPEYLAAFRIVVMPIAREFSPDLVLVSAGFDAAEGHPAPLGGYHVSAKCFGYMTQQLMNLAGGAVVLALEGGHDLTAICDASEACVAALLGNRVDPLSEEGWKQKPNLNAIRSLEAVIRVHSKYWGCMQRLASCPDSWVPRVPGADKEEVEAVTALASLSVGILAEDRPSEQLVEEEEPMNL

Histone deacetylase 9 = Histone deacetylase 9 (Homo sapiens, UniProt Q9UKV0); test: Inhibition of human recombinant HDAC9 incubated for 30 mins by fluorimetry analysis
[1] = target: T2, Protein deacetylase HDAC6 (Homo sapiens, UniProt Q9UBN7); test: Inhibition of human recombinant HDAC6 incubated for 30 mins by fluorimetry analysis
T2 sequence (Q9UBN7 whole entry): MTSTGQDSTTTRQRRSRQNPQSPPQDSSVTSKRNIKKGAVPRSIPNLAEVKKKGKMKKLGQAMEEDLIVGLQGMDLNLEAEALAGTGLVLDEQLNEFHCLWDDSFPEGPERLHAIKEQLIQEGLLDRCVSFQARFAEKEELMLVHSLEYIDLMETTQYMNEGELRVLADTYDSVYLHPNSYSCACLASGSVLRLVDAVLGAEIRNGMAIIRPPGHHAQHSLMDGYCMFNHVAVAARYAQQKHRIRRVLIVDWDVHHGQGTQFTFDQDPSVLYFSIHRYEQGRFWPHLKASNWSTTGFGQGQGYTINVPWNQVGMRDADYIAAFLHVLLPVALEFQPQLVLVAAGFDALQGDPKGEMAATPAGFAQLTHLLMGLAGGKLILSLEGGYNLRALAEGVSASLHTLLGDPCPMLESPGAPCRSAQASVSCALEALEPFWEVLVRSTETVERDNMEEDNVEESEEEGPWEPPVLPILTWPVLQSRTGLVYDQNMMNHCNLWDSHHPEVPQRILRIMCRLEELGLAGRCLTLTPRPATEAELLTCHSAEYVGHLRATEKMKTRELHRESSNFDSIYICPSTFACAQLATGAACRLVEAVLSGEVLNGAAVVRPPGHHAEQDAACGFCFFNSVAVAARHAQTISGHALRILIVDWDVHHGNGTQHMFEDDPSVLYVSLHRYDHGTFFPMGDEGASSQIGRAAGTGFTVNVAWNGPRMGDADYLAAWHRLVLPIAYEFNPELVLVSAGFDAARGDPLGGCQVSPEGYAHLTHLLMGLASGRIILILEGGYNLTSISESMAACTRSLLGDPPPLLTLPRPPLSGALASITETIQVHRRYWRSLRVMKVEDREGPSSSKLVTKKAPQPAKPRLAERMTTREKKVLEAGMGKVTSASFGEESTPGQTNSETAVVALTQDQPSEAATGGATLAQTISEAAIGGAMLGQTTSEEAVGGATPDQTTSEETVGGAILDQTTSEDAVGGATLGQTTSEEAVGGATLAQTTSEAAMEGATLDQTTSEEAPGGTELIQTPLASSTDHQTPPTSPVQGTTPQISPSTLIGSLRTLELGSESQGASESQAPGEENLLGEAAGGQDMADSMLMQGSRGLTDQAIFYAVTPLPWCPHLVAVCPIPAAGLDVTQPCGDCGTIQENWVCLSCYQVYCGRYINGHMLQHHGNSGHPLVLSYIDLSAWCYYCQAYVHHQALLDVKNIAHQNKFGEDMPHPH

[2] = target: T2, Protein deacetylase HDAC6; test: Inhibition of HDAC6 in human BEAS-2B cells assessed as deacetylation of acetylated alpha-tubulin level incubated for 24 hrs by Western blot analysis; assay type: cell-based
Histone deacetylase 5 = Histone deacetylase 5 (Homo sapiens, UniProt Q9UQL6); test: Inhibition of human recombinant HDAC5 incubated for 30 mins by fluorimetry analysis
[3] = Aqueous solubility of the compound at pH 7.4; assay type: physicochemical
[4] = target: T2, Protein deacetylase HDAC6; test: Inhibition of HDAC6 in human BEAS-2B cells assessed as deacetylation of acetylated histone-3 level incubated for 24 hrs by Western blot analysis; assay type: cell-based
Histone deacetylase 11 = target: T3, Histone deacetylase 11 (Homo sapiens, UniProt Q96DB2); test: Inhibition of human recombinant HDAC11 incubated for 30 mins by fluorimetry analysis
T3 sequence (Q96DB2 whole entry): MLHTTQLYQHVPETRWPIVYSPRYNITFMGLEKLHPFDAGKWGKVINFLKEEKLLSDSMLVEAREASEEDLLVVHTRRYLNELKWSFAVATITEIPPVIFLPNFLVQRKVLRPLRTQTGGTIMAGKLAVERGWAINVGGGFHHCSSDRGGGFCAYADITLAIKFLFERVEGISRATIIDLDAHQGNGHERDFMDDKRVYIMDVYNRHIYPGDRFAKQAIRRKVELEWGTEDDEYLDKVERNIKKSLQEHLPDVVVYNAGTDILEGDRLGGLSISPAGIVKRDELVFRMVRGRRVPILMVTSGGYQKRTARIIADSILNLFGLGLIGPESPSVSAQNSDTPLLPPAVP

Histone deacetylase 2 = Histone deacetylase 2 (Homo sapiens, UniProt Q92769); test: Inhibition of human recombinant HDAC2 incubated for 15 mins by fluorimetry analysis
Histone deacetylase 2, sequence (Q92769 whole entry): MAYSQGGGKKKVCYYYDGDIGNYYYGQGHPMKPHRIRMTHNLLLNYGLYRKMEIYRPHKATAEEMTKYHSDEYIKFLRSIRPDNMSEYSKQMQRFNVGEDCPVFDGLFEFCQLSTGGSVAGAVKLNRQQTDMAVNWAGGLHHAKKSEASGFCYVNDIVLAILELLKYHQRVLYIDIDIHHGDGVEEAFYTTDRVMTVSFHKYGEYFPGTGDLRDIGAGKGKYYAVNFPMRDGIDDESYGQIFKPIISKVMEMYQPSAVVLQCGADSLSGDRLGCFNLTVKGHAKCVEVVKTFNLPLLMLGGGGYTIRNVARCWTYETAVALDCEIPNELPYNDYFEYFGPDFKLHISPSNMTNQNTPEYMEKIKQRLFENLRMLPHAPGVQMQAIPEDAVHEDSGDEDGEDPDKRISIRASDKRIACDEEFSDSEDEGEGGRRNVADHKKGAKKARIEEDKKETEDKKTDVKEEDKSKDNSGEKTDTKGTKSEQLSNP

Histone deacetylase 5, sequence (Q9UQL6 whole entry): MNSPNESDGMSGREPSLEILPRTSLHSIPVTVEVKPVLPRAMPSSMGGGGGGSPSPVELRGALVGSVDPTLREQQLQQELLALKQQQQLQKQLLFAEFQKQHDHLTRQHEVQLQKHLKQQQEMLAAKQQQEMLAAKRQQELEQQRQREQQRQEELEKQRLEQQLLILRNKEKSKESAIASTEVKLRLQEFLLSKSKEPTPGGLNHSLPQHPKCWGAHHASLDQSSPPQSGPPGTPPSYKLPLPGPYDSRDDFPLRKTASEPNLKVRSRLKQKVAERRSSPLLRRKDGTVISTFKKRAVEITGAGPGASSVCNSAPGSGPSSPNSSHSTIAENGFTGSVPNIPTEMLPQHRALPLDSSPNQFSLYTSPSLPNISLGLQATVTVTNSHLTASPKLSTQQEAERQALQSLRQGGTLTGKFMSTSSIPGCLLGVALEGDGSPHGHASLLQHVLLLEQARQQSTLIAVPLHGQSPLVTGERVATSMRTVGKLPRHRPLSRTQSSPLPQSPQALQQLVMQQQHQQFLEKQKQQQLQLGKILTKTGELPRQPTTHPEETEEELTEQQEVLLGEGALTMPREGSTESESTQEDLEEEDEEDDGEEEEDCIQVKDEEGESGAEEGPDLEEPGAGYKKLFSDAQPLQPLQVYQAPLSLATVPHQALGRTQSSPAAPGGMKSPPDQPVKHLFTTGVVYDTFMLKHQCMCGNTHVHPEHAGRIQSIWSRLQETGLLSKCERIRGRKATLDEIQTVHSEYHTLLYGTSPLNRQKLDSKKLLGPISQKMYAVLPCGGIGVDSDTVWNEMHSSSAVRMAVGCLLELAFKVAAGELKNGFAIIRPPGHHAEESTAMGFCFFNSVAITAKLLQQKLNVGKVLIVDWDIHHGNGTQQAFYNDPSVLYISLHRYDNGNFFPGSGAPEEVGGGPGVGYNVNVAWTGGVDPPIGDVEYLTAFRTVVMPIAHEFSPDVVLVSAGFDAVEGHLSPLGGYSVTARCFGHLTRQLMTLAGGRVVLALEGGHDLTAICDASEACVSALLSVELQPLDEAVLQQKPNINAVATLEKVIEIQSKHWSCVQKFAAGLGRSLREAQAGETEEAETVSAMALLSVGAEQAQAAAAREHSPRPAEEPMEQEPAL
Histone deacetylase 9, sequence (Q9UKV0 whole entry): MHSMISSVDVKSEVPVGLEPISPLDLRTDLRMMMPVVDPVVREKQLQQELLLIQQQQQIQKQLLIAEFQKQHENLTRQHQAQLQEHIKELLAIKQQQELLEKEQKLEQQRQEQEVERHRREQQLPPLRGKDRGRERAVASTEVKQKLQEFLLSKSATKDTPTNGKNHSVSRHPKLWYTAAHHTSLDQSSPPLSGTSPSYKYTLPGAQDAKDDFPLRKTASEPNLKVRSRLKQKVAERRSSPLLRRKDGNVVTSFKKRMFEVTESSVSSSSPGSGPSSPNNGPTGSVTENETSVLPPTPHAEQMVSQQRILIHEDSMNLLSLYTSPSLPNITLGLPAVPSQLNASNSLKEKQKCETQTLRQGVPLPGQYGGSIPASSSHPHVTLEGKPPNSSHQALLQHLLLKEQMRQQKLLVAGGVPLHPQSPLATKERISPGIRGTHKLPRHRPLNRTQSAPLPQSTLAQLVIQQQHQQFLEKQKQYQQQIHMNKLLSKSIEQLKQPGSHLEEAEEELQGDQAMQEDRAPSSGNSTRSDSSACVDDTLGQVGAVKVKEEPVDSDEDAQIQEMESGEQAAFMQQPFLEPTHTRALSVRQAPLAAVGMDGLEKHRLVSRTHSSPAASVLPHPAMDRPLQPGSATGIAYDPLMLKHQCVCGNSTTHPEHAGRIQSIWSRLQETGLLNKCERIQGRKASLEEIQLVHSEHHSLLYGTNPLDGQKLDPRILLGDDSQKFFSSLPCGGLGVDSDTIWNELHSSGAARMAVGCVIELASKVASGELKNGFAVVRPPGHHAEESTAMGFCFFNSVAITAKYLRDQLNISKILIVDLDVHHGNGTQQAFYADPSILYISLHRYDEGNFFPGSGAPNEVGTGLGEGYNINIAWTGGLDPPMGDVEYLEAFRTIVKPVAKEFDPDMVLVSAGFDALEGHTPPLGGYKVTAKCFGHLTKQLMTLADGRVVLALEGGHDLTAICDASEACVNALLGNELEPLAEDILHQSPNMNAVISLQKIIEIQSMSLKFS

| Compound | pIC50 (Histone deacetylase 7) | pIC50 (Histone deacetylase 9) | pIC50 [1] | pEC50 [2] | pIC50 (Histone deacetylase 5) | solubility [3] [µM] | pIC50 [4] | pIC50 (Histone deacetylase 11) | pIC50 (Histone deacetylase 2) |
| --- | --- | --- | --- | --- | --- | --- | --- | --- | --- |
| COc1ccccc1-c1nnn(Cc2ccc(-c3nnc(C(F)F)o3)cn2)n1 | < 4.00 | < 4.00 | 6.77 | 6.50 | < 4.00 | 60 (≈ 23.1 µg/mL) | < 5.00 | < 4.00 | < 4.00 |
| CS(=O)(=O)NCC(Nc1ncc(-c2nnc(C(F)F)o2)cn1)c1ccc(OC(F)(F)F)cc1 (stereo unspecified) | 4.52 | 4.72 | 6.24 | 7.20 | < 4.00 | 110 (≈ 54.4 µg/mL) | < 5.00 | < 4.00 | < 4.00 |
| O=C(NO)c1cnc(NC2(c3ccccc3)CCC(F)(F)CC2)nc1 | 5.19 | 4.72 | > 8.00 | 7.10 | 5.43 | 810 (≈ 282 µg/mL) | < 5.00 | 4.89 | 4.15 |
| FC(F)c1nnc(-c2ccc(Cn3nnc(-c4ccccn4)n3)nc2)o1 | < 4.00 | < 4.00 | 6.72 | 6.60 | < 4.00 | 410 (≈ 146 µg/mL) | < 5.00 | < 4.00 | < 4.00 |
